According to patent US20250248979A1, “NOVEL GPX4 INHIBITORS AND USES THEREOF” (THE TRUSTEES OF COLUMBIA UNIVERSITY IN THE CITY OF NEW YORK, priority 2022, published 2025):
Where two headings read alike, the source gives them in different places. Each block holds one compound with its values, some of them ahead of it.

Key:
[1] = test system: HT-1080 cells; assay: Cellular dose response assay, HT-1080 with and without Fer-1; type: cell-based, human
How it was run: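 Viability is measured with CellTiter-Glo after cells plated at 1500 per well the previous day receive a 12-point, 2-fold dilution series for 48 h. DMSO is kept at 0.4% in every well, and HT-1080 is tested both with and without Fer-1.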

[2] = test system: HepG2 cells; assay: Cellular dose response assay, HepG2; type: cell-based, human
How it was run: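 Cells seeded at 1500/well overnight, then treated in triplicate with 12-point 2-fold compound dilutions ± Fer-1 (0.4% DMSO final) for 48 h at 37 °C, 5% CO2. Viability read by CellTiter-Glo luminescence; error bars are SD of three technical replicates from a representative experiment.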

[3] = test system: Huh7 cells; assay: Cellular dose response assay, Huh7; type: cell-based, human
Source text: (§1) HT-1080 (human [Homo sapiens] […] fibrosarcoma), A-673 (human [Homo sapiens] […] Ewing's sarcoma), and SK-HEP-1 (human [Homo sapiens] […] hepatic adenocarcinoma), cells were obtained from ATCC. Huh7 (human [Homo sapiens] […] hepatocellular carcinoma), HLF (human [Homo sapiens] […] hepatocellular carcinoma), HepG2 (human [Homo sapiens] […] hepatocellular carcinoma), cells were obtained from the Cancer Cell Bank at Columbia University Irving Medical Center. HT-1080, A-673, Huh-7, and HLF cells were grown in Dulbecco's Modified Eagle Medium (DMEM) supplemented with 10% heat inactivated fetal bovine serum (HI-FBS), 1% non-essential amino acids, and 1% penicillin streptomycin. HepG2 and SK-HEP-1 cells were grown in Eagle's Minimum Essential Medium (EMEM) supplemented with 10% HI-FBS, and 1% penicillin-streptomycin. All cells were cultured at 37° C. and 5% CO2.
(§2) HT-1080, HepG2, Huh7, HLF, and SK-HEP-1 cells were seeded into opaque white 384-well plates at 1500 cells per well then incubated at 37° C. with 5% CO2 overnight. The next day, compounds of interest were dissolved in DMSO and 12-point 2-fold dilution series were prepared with and without Fer-1. Cells were treated in triplicate (final DMSO concentration of 0.4% in all wells, including DMSO-only control wells) and incubated for a further 48 hours at 37° C. and 5% CO2. Cell viability was evaluated using CellTiter-Glo (Promega G7573) and luminescence was recorded on a Victor 5 plate reader. Data were analyzed in GraphPad Prism 9 and error bars represent standard deviation values for three technical replicates in a representative experiment.

[4] = test system: HLF cells; assay: Cellular dose response assay, HLF; type: cell-based, human
Source text: as §1, §2

[5] = test system: SK-HEP-1 cells; assay: Cellular dose response assay, SK-HEP-1; type: cell-based, human
Source text: as §1, §2

[6] = molecular target: T1, GPX4 (Homo sapiens, UniProt P36969); assay: GPX4 activity assay in cell lysates (NADPH-coupled); type: biochemical; set-up: endogenous in cells; host or cells: A-673 cell lysate; conditions: for GPX4% inhibition at 200 (μM): mean ± s.d., n = 3; for IC50: mean±SD, n=3 (FIG. 84E), read-out: IC50 in the in vitro GPX4 activity assay
T1 sequence (P36969 1-170 isoform P36969-2): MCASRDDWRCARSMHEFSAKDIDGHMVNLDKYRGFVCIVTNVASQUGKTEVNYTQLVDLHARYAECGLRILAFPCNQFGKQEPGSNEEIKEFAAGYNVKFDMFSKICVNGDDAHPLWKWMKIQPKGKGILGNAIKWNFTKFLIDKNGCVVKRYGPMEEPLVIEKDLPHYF
How it was run: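 Native GPX4 in lysates of A-673 cells grown with 20 nM sodium selenite; lysate preincubated with compound 45 min at 37 °C in pH 8.0 buffer with 3 mM GSH, 0.5 mM NADPH and glutathione reductase. Reaction started with phosphatidylcholine hydroperoxide; NADPH consumption followed at 340 nm over 25 min; triplicates.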

[7] = compounds alone, Table 4, read-out: IC50 (uM) HT1080^a
[8] = with fer-1, Table 4, read-out: IC50 (uM) HT1080^b
[9] = compounds alone, Table 4, read-out: IC50 (uM) HEPG2^a
[10] = with fer-1, Table 4, read-out: IC50 (uM) HEPG2^b
[11] = compounds alone, Table 4, read-out: IC50 (uM) Huh7^a
[12] = with fer-1, Table 4, read-out: IC50 (uM) Huh7^b
[13] = compounds alone, Table 4, read-out: IC50 (uM) HLF^a
[14] = with fer-1, Table 4, read-out: IC50 (uM) HLF^b
[15] = compounds alone, Table 4, read-out: IC50 (uM) SKHEP1^a
[16] = with fer-1, Table 4, read-out: IC50 (uM) SKHEP1^b
[17] = with Fer-1, Table 10, read-out: IC50 (μM) HT1080 + Fer-1

IC50 [1, 7]: 22.9 µM
IC50 [1, 8]: 33.1 µM
IC50 [2, 9]: 25.4 µM
IC50 [2, 10]: 51.5 µM
IC50 [3, 11]: 17.8 µM
IC50 [3, 12]: 55.4 µM
IC50 [4, 13]: 13.4 µM
IC50 [4, 14]: 34.3 µM
IC50 [5, 15]: 13.7 µM
IC50 [5, 16]: 62.8 µM
GPX4% inhibition at 20 (μM) ([6]; 20 μM, generation 1): 61.2 ± 0.5%
GPX4 inhibition ([6]; 50 μM): complete GPX4 inhibition
GPX4% inhibition at 50 (μM) ([6]; 50 μM, generation 1): 98.6 ± 4.1%
GPX4% inhibition at 100 (μM) ([6]; 100 μM, generation 1): 95.5 ± 6.2%
GPX4 inhibition ([6]; 200 μM): complete inhibition
GPX4% inhibition at 200 (μM) ([6]; 200 μM, generation 1): 170.3 ± 33.5%
SMILES: CC(C)(COC(=O)CCl)NC(=O)c1cc2ccc(Br)cc2[nH]1 [QW-156]

SMILES: Cn1nc(C(=O)NC(C)(C)COC(=O)CCl)c2ccc(Br)cc21 [QW-314]
IC50 ([1]; Homo sapiens, HT-1080, read-out: IC50 (uM) HT1080^a): 1.9 µM
IC50 ([1]; Homo sapiens, HT-1080, read-out: IC50 (uM) HT1080^b): 77.4 µM
IC50 ([2]; Homo sapiens, HepG2, read-out: IC50 (uM) HEPG2^a): 11.3 µM
IC50 ([2]; Homo sapiens, HepG2, read-out: IC50 (uM) HEPG2^b): 222 µM
times less potent than RSL3 in cells [3]: approximately 10 times
GI50 ([3]; Homo sapiens, Huh-7): ~1 µM
IC50 ([3]; Homo sapiens, Huh-7, read-out: IC50 (uM) Huh7^a): 1.8 µM
IC50 ([3]; Homo sapiens, Huh-7, read-out: IC50 (uM) Huh7^b): 92.9 µM
GI50 ([4]; Homo sapiens, HLF): ~1 µM
IC50 ([4]; Homo sapiens, HLF, read-out: IC50 (uM) HLF^a): 0.13 µM
IC50 ([4]; Homo sapiens, HLF, read-out: IC50 (uM) HLF^b): 80 µM
IC50 ([5]; Homo sapiens, SK-HEP1, read-out: IC50 (uM) SKHEP1^a): 10.8 µM
IC50 ([5]; Homo sapiens, SK-HEP1, read-out: IC50 (uM) SKHEP1^b): 106 µM
GPX4 inhibition ([6]; 20 µM): complete inhibition in the assay even at 20 μM
GPX4 inhibition ([6]; 200 μM): complete inhibition
IC50 [6]: 5.8 µM
inhibition at 20 µM ([6]; read-out: GPX4% inhibition at 20 (μM)): 108 ± 5.3%
inhibition at 200 µM ([6]; read-out: GPX4% inhibition at 200 (μM)): 93.1 ± 6%

IC50 ([1]; HT1080 + Fer-1, read-out: IC50 (uM) HT1080 + Fer-1): 30.3 µM
IC50 ([1]; read-out: IC50 HT1080): 0.44 µM
GPX4% inhibition at 2.5 μM [6]: 79.1 ± 4.4%
GPX4% inhibition at 5 μM ([6]; 5 μM): 88.1 ± 2.7%
GPX4 inhibition rate ([6]; concentration not given): 90%
IC50 [6]: 0.49 µM
SMILES: COc1ccc(-c2ccc3c(C(=O)NC(C)(C)COC(=O)CCl)nn(C)c3c2)cc1Cl [QW-446]
ferroptosis selectivity ([1]; HT-1080): 69
Selectivity ([1]; ferroptosis selectivity, HT1080 + Fer-1 vs HT1080): 69
GPX4 inhibitory activity, result in words [6]: greater GPX4 inhibitory activity than QW-314 at 5 μM

SMILES: CC(C)(COC(=O)CCl)NC(=O)c1nn(Cc2cc(Cl)cc(Cl)c2)c2cc(-c3ccc(N4CCOCC4)c(Cl)c3)ccc12 [QW-852]
Selectivity [1]: >1000
IC50 ([1]; read-out: IC50 against HT1080 cell lines): 0.0395 µM
IC50 [1, 17]: > 40 µM
GPX4 inhibitory activity, result in words [6]: greater GPX4 inhibitory activity than QW-446 at 2.5 μM concentration
GPX4% inhibition at 2.5 μM ([6]; 4th generation): 88.2 ± 13.3%

SMILES: COC(=O)c1ccc([C@@H]2c3[nH]c4ccccc4c3C[C@@H](C(=O)OC)N2C(=O)CCl)cc1 [RSL3, reference compound]
Selectivity [1]: 103.6
IC50 [1, 7]: 0.044 µM
IC50 ([1]; compounds alone, Table 7, read-out: IC50 (uM) HT1080^a): 0.044 µM
IC50 ([1]; compounds alone, read-out: IC50 (μM) HT1080^a): 0.044 µM
IC50 ([1]; compounds and fer-1 1.0 μM, read-out: IC50 (μM) HT1080^b): 4.6 µM
IC50 [1, 17]: 4.6 µM
IC50 [1, 8]: 4.6 µM
IC50 ([1]; with fer-1, Table 7, read-out: IC50 (uM) HT1080^b): 4.6 µM
IC50 ([1]; without Fer-1, Table 10, read-out: IC50 HT1080): 0.0444 µM
IC50 [2, 9]: 5.4 µM
IC50 ([2]; compounds alone, Table 7, read-out: IC50 (uM) HEPG2^a): 5.4 µM
IC50 ([2]; compounds alone, read-out: IC50 (μM) HEPG2^a): 5.4 µM
IC50 ([2]; compounds and fer-1 1.0 μM, read-out: IC50 (μM) HEPG2^b): 32.2 µM
IC50 [2, 10]: 32.2 µM
IC50 ([2]; with fer-1, Table 7, read-out: IC50 (uM) HEPG2^b): 32.2 µM
IC50 [3, 11]: 0.6 µM
IC50 ([3]; compounds alone, Table 7, read-out: IC50 (uM) Huh7^a): 0.6 µM
IC50 [3, 12]: 34.4 µM
IC50 ([3]; with fer-1, Table 7, read-out: IC50 (uM) Huh7^b): 34.4 µM
IC50 [4, 13]: 0.25 µM
IC50 ([4]; compounds alone, Table 7, read-out: IC50 (uM) HLF^a): 0.25 µM
IC50 [4, 14]: > 40 µM
IC50 ([4]; with fer-1, Table 7, read-out: IC50 (uM) HLF^b): > 40 µM
IC50 [5, 15]: 0.05 µM
IC50 ([5]; compounds alone, Table 7, read-out: IC50 (uM) SKHEP1^a): 0.05 µM
IC50 [5, 16]: > 40 µM
IC50 ([5]; with fer-1, Table 7, read-out: IC50 (uM) SKHEP1^b): > 40 µM
GPX4% inhibition at 200 (μM) ([6]; 200 μM): 112.5 ± 6.5%
IC50 [6]: 7.6 µM
